Data on 1 compound can be found in BindingDB's records for patent US20250179055 (Innovstone Therapeutics, 2025).

The assay addresses Apolipoprotein(a) (Homo sapiens, UniProt P08519). Briefly: Methods of ELISA Assay on Screening Lp(a) Assembly Inhibition. As for the experimental part: 1) Added 100 μL of capture antibody to each well of a pre-coated ELISA plate and incubated overnight at 25° C.2) Added 300 μL of washing solution to each well and washed 5 times for 1 min each time.3) Added 100 μL of blocking solution to each well and incubated at 25° C. for 2 h.4) Added 300 μL of washing solution to each well and washed 5 times for 1 min each time.5) Added 100 μL of sample to each well and incubated at 25° C. for 1 h.6) Added 300 μL of washing solution to each well and washed 5 times for 1 min each time.7) Added 100 μL of detection antibody to each well and incubated at 25° C. for 1 h.8) Added 300 μL of washing solution to each well and washed 5 times for 1 min each time.9) Added 100 μL substrate solution (Color Reagent A: Color Reagent B, 1:1) to each well and incubated for 20 min at 25° C. in the dark.10) Added […] of stop solution to each well, gently blowed and sucked several times with the pipette tip, and read within 5 min.

Chain of Apolipoprotein(a) (P08519 whole entry): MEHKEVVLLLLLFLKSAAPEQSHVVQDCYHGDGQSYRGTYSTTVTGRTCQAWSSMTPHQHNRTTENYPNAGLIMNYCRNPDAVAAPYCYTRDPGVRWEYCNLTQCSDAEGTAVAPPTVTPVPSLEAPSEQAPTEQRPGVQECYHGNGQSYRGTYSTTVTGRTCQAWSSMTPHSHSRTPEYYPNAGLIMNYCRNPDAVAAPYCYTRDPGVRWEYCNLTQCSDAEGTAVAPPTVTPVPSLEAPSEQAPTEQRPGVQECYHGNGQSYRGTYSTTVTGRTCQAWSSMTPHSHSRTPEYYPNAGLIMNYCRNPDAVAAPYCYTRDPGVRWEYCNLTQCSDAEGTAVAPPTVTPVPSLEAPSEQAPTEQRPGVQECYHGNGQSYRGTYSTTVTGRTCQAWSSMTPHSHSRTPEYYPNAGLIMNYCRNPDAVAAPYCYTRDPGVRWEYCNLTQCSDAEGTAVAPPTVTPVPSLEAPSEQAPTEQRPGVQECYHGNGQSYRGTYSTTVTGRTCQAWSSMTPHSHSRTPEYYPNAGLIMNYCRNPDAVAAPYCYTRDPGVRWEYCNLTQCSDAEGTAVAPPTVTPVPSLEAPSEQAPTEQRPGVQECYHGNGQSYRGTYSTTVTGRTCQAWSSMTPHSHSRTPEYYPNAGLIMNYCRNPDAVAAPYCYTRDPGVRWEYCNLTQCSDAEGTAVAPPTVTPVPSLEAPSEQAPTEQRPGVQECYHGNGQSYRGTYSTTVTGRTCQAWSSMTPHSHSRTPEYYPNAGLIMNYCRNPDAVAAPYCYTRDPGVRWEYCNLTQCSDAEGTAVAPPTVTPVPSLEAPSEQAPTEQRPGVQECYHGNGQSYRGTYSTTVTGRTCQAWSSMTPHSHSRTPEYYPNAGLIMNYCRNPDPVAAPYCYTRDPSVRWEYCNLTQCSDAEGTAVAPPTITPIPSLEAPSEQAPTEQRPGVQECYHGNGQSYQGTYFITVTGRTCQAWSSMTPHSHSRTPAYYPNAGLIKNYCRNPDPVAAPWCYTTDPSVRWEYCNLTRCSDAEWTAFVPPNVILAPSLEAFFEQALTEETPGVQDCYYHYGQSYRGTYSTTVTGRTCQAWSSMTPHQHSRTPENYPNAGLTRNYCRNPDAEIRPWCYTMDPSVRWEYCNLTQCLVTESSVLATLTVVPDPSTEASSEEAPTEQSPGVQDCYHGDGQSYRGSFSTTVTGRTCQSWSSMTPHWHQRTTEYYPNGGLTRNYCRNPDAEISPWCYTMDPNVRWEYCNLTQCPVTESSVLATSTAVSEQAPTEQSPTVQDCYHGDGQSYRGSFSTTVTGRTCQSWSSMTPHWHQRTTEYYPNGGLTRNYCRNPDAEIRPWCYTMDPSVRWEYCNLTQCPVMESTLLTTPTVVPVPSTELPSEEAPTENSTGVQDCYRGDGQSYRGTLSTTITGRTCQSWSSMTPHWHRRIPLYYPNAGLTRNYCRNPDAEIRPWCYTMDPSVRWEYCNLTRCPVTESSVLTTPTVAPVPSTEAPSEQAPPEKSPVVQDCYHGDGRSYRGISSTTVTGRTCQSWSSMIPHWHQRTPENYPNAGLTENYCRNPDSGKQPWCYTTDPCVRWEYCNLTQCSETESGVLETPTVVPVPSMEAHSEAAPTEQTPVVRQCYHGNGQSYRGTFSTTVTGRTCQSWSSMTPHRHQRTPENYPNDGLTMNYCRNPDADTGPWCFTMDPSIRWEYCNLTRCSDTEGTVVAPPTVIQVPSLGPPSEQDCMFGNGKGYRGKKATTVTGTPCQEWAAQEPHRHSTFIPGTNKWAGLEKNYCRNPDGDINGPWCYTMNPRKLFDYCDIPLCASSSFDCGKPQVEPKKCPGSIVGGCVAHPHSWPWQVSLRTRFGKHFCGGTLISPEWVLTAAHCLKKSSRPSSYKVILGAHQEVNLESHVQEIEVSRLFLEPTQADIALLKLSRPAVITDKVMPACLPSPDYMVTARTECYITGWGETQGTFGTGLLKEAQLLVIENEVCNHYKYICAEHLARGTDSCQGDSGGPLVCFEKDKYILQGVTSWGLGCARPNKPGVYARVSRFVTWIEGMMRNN

`O=C(O)[C@@H](Cc1cc2cc(CN(Cc3ccc4oc(C[C@H](C(=O)O)[C@H]5CCNC5)cc4c3)Cc3ccc4oc(C[C@H](C(=O)O)[C@H]5CCNC5)cc4c3)ccc2o1)[C@H]1CCNC1` [US20250179055, Compound 127] yielded an IC50 of 0.9 nM.
